Assay results published in article PMC6297231 (Nature Communications, 2018).

How the values were obtained:
[1] = system: ULA; test: Cell viability assay; type: cell-based; conditions: 24 h; ULA (NHL); read-out: AZD5991 24h GI50
Experimental: (§1) Cells were plated at 3000 cells/well in 384-well white plates in corresponding cell growth media. […] Caspase-3/7 activation was subsequently determined using a Caspase-Glo 3/7 Reagent (Promega) and viability was assayed using the CellTiter-Glo Reagent (Promega) as described in manufacturer’s instructions. Dose–response curves for caspase-3/7 activation and viability were plotted and analyzed (including EC50 and GI50 determination) using GraphPad Prism.

[2] = system: KG1; test: Cell viability assay; type: cell-based; conditions: Homo sapiens, KG-1, 24 h; KG1 (AML); read-out: AZD5991 24h GI50
Experimental: as §1

[3] = system: NCI-H929 tumors; test: NCI-H929 subcutaneous xenograft efficacy; type: in vivo, mice; conditions: single i.v. dose 100 mg kg^−1
Experimental: Female C.B.-17 SCID mice and female nude rats were purchased from Charles River Laboratories. […]. All xenograft studies were conducted at our Association for the Assessment and Accreditation of Laboratory Animal Care accredited facility in Waltham, MA in accordance with ethical regulations described in the guidelines established by the internal Institutional Animal Care and Use Committee. […]. In mice, drugs were dosed intravenously in a volume of 5 mL kg^-1 except for venetoclax that was dosed orally in a volume of 10 mL kg^-1. […]. Ten million MV4-11 cells were injected subcutaneously in the right flank of rats in a volume of 0.1 mL. Tumor volumes (measured by caliper), animal body weight, and tumor condition were recorded twice weekly for the duration of the study. The tumor volume was calculated using the formula: length (mm) × width (mm)^2/0.52. For efficacy studies, growth inhibition from the start of treatment was assessed by comparison of the differences in tumor volume between control and treated groups. Statistical significance was evaluated using non-parametric, unpaired, two-tailed t-test. […] For pharmacokinetic analysis, plasma samples were precipitated and diluted with acetonitrile containing internal standard and analyzed by LC–MS/MS versus a calibration curve of known concentrations.

[4] = system: T47D; test: Cell viability assay; type: cell-based; conditions: Homo sapiens, 24 h; T47D (Breast); read-out: AZD5991 24h GI50
Experimental: as §1

[5] = system: HBL1; test: Cell viability assay; type: cell-based; conditions: 24 h; HBL1 (NHL); read-out: AZD5991 24h GI50
Experimental: as §1

[6] = system: MOLP-8 cells; test: Kinetics of apoptosis and cell death markers; type: cell-based
Experimental: Data presented in Fig. 4b was calculated as follows:4 TMRE:(TMREnegativesample-TMREnegativeDMSO)∕(TMREnegative500nMAZD5991@24h-TMREnegativeDMSO)×100 5 Annexin V : (Annexin V positive sample) - Annexin positive DMSO∕(Annexin positive 500nM AZD5991@24h) - Annexin positive DMSO × 100 6 7AAD : (7AAD positive sample) - 7AAD positive 500nM AZD5991@0.5h∕(7AAD positive 500nM AZD5991@16h) - 7AAD positive 500nM AZD5991@0.5h × 100

[7] = system: MOLM13; test: Cell viability assay; type: cell-based; conditions: Homo sapiens, MOLM-13, 24 h; MOLM13 (AML); read-out: AZD5991 24h GI50
Experimental: as §1

[8] = system: ML2; test: Cell viability assay; type: cell-based; conditions: Homo sapiens, ML-2, 24 h; ML2 (AML); read-out: AZD5991 24h GI50
Experimental: as §1

[9] = system: Eμ-Myc lymphoma cells stably expressing human Bfl-1/A1; test: Apoptosis induction in Eμ-Myc lymphoma cells; conditions: overexpression of Bfl-1/A1, 24 h
Description: The retroviral plasmids to express human Bcl-2 family members in murine Eμ-Myc lymphoma cells are MSCV-hMCL-1-GFP, MSCV-hBCL-2-GFP, MSCV-hBCL-XL-GFP, MSCV-hBFL-1/A1-GFP, and MSCV-hBCL-w-GFP. To produce viruses, constructs of interest were co-transfected into HEK293T cells with the plasmid encoding the packaging viruses (p-CL-AMPHO provided by Phillip Darcy from Peter MacCallum Cancer Center, Melbourne, Australia) using standard calcium phosphate transient transfection technique. The retroviruses were harvested, filtered and used to infect target cells following standard procedures.
Samples were then centrifuged, washed twice with PBS and analyzed by flow cytometry in a BD LSRFortessa. FACSDiva software was used for data collection and FlowJo software for data analysis.

[10] = system: ARH77; test: Cell viability assay; type: cell-based; conditions: Homo sapiens, ARH-77, 24 h; ARH77 (MM); read-out: AZD5991 24h GI50
Experimental: as §1

[11] = system: EJM; test: Cell viability assay; type: cell-based; conditions: Homo sapiens, 24 h; EJM (MM); read-out: AZD5991 24h GI50
Experimental: as §1

[12] = system: Toledo; test: Cell viability assay; type: cell-based; conditions: Homo sapiens, 24 h; Toledo (NHL); read-out: AZD5991 24h GI50
Experimental: as §1

[13] = system: AMO1; test: Cell viability assay; type: cell-based; conditions: Homo sapiens, 24 h; AMO1 (MM); read-out: AZD5991 24h GI50
Experimental: as §1

[14] = system: Kasumi3; test: Cell viability assay; type: cell-based; conditions: Kasumi-3, 24 h; Kasumi3 (AML); read-out: AZD5991 24h GI50
Experimental: as §1

[15] = system: Sudhl8; test: Cell viability assay; type: cell-based; conditions: Homo sapiens, SU-DHL-8, 24 h; Sudhl8 (NHL); read-out: AZD5991 24h GI50
Experimental: as §1

[16] = system: HCC1187; test: Cell viability assay; type: cell-based; conditions: Homo sapiens, 24 h; HCC1187 (Breast); read-out: AZD5991 24h GI50
Experimental: as §1

[17] = system: RI1; test: Cell viability assay; type: cell-based; conditions: Ri-1, 24 h; RI1 (NHL); read-out: AZD5991 24h GI50
Experimental: as §1

[18] = system: NB4; test: Cell viability assay; type: cell-based; conditions: Homo sapiens, NB-4, 24 h; NB4 (AML); read-out: AZD5991 24h GI50
Experimental: as §1

[19] = system: L363; test: Cell viability assay; type: cell-based; conditions: Homo sapiens, L-363, 24 h; L363 (MM); read-out: AZD5991 24h GI50
Experimental: as §1

[20] = system: JEKO1; test: Cell viability assay; type: cell-based; conditions: Homo sapiens, JeKo-1, 24 h; JEKO1 (NHL); read-out: AZD5991 24h GI50
Experimental: as §1

[21] = system: G361; test: Cell viability assay; type: cell-based; conditions: Homo sapiens, G-361, 24 h; G361 (Skin); read-out: AZD5991 24h GI50
Experimental: as §1

[22] = system: KMS34; test: Cell viability assay; type: cell-based; conditions: KMS-34, 24 h; KMS34 (MM); read-out: AZD5991 24h GI50
Experimental: as §1

[23] = system: Daudi; test: Cell viability assay; type: cell-based; conditions: Homo sapiens, 24 h; Daudi (NHL); read-out: AZD5991 24h GI50
Experimental: as §1

[24] = system: Namalwa; test: Cell viability assay; type: cell-based; conditions: 24 h; Namalwa (NHL); read-out: AZD5991 24h GI50
Experimental: as §1

Cc1c2c(nn1C)CSCc1cc(n(C)n1)CSc1cc(c3ccccc3c1)OCCCc1c(C(=O)O)n(C)c3c-2c(Cl)ccc13 (atropisomer, axis not shown; (Ra)) [(Ra)-7]
GI50 [1]: 91 nM
GI50 [2]: 291 nM
mice with complete tumor regression [3]: four out of four
GI50 [4]: > 30000 nM
GI50 [5]: 8320 nM
time to loss of ATP and disruption of the cell membrane [6]: less than 24 h
time to maximum increase in MOMP, caspase-3/7 activation and phosphatidyl-serine exposure ([6]; MOLP-8 cells, 500 nM): less than 2 h
GI50 [7]: 42 nM
GI50 [8]: 69 nM
apoptosis-inducing activity [9]: blocked
GI50 [10]: 18200 nM
GI50 [11]: 105 nM
GI50 [12]: 113 nM
GI50 [13]: 129 nM
GI50 [14]: 172 nM
GI50 [15]: 198 nM
GI50 [16]: 233 nM
GI50 [17]: 28200 nM
GI50 [18]: 292 nM
GI50 [19]: 75 nM
GI50 [20]: 452 nM
GI50 [21]: 404 nM
GI50 [22]: 503 nM
GI50 [23]: 133 nM
GI50 [24]: 39 nM
